Data set [1] in a line: Cell viability assay (MTT), MIAPaCa-2. As to conditions: human, MIAPaCa-2 pancreatic cancer cells.
Method: (§1) After synthesizing the functionalized aminobenzoboroxoles, these molecules were evaluated for their general cytotoxicity against breast cancer cell lines (MDA-MB-231) and pancreatic cancer cell lines (MIAPaCa-2).
(§2) Human pancreatic cancer MIAPaCa-2 cells were purchased from ATCC and were maintained in D-MEM supplemented with 10% FBS, 2.5% horse serum, and 1% Penicillin Streptomycin in a humidified atmosphere of 5% CO2 at 37° C. Human breast cancer MDA-MB-231 cells were purchased from ATCC and were maintained in D-MEM supplemented with 10% FBS and 1% Penicillin Streptomycin in a humidified atmosphere of 5% CO2 at 37° C. […] DMSO was added as a negative control. To determine the cell viability, MTT (3-(4,5-dimethylthiazolyl-2)-2,5-diphenyltetrazolium bromide) was dissolved in PBS solution (5 mg/mL) and 10 μL was added to each well and incubated. After 4 hours, 100 μL of SDS (sodium dodecyl sulfate) solution (1 g in 10 mL of 0.01 N HCl) was added to solubilize formazan precipitate and incubated for an additional 4 hours. The absorbance of each well was then measured using a microplate reader at 570 nm. The absorbance of control wells was defined as 100% viability and all of the tested compounds were expressed as percentage relative to the control.
Data set [2] is described as follows: Cell viability assay (MTT), MDA-MB-231. The following applies: human, MDA-MB-231 breast cancer cells.
Method: as §1, §2
Data set [3] deals with Human pancreatic cancer MIAPaCa-2 cells. As to the kind of experiment: Cell viability assay (MTT), MIAPaCa-2. As to conditions: for activity against MIAPaCa-2 cell lines: 12.5 μM concentration; for pIC50: Homo sapiens, MIA PaCa-2.
Method: as §1, §2
Data set [4] relates to Human breast cancer MDA-MB-231 cells. The data set is described as follows: Cell viability assay (MTT), MDA-MB-231. As to conditions: Homo sapiens, MDA-MB-231.
Method: as §1, §2

pIC50: −log10 of the molar value.

With `OB1OCc2ccc(NCc3ccccc3)cc21` [Compound 2], the melting point fell in the range of 123 to 125 °C. In data set [1], the viability at 72 h, 12.5 µM came out at 76.6% and the viability at 72 h, 50 µM was 34.5%. Moreover, in data set [2], the viability at 72 h, 12.5 µM came out at 73.7% and the viability at 72 h, 50 µM came to 80.2%.

As to `OB1OCc2ccc(NCc3ccc(F)cc3)cc21` [Compound 3], the melting point was in the range of 135 to 137 °C. For the same compound, in data set [1], the viability at 72 h, 12.5 µM turned out to be 87.2% and the viability at 72 h, 50 µM was 73.6%. Also, in data set [2], the viability at 72 h, 12.5 µM turned out to be 84% and the viability at 72 h, 50 µM worked out at 91.7%.

In turn, `OB1OCc2ccc(NCc3ccc(F)cc3F)cc21` [Compound 4] registered a melting point of 136 to 138 °C. Moreover, in data set [1], the viability at 72 h, 12.5 µM turned out to be 90.9% and the viability at 72 h, 50 µM came out at 63.9%. In data set [2], the viability at 72 h, 12.5 µM worked out at 80.2% and the viability at 72 h, 50 µM was 90%.

As to `OB1OCc2ccc(NCc3ccc(Cl)cc3Cl)cc21` [Compound 5], the melting point was in the range of 106 to 108 °C. In data set [1], the viability at 72 h, 12.5 µM amounted to 86.4% and the viability at 72 h, 50 µM came out at 65.8%. In data set [2], the viability at 72 h, 12.5 µM was determined as 75.2% and the viability at 72 h, 50 µM was 75.7%.

In turn, `OB1OCc2ccc(NCc3ccc(Cl)c(Cl)c3)cc21` [Compound 6] returned a melting point of 128 to 130 °C. Besides, in data set [1], the viability at 72 h, 12.5 µM was 95.3% and the viability at 72 h, 50 µM worked out at 62.6%. Also, in data set [2], the viability at 72 h, 12.5 µM stood at 69.2% and the viability at 72 h, 50 µM was found to be 68.7%.

As for `O=C(O)c1ccc(CNc2ccc3c(c2)B(O)OC3)cc1` [Compound 7], the melting point was in the range of 221 to 223 °C. Moreover, in data set [1], the viability at 72 h, 12.5 µM came to 71.3% and the viability at 72 h, 50 µM came out at 80.6%. In addition, in data set [2], the viability at 72 h, 12.5 µM amounted to 100% and the viability at 72 h, 50 µM came to 124%.

Compound `N#Cc1ccc(CNc2ccc3c(c2)B(O)OC3)cc1` [Compound 8] yielded a melting point of 141 to 143 °C. In data set [1], the viability at 72 h, 12.5 µM came out at 80.8% and the viability at 72 h, 50 µM came out at 47%. In addition, in data set [2], the viability at 72 h, 12.5 µM is 77.7% and the viability at 72 h, 50 µM was 109%.

Take `Cc1ccc(CNc2ccc3c(c2)B(O)OC3)cc1` [Compound 9]: the melting point was in the range of 148 to 150 °C. For the same compound, in data set [1], the viability at 72 h, 12.5 µM was determined as 57.2% and the viability at 72 h, 50 µM is 45.9%. Moreover, in data set [2], the viability at 72 h, 12.5 µM is 84.1% and the viability at 72 h, 50 µM was determined as 82.8%.

For the compound `COc1ccc(CNc2ccc3c(c2)B(O)OC3)cc1` [Compound 10, 6-N-(p-methoxybenzyl)aminobenzoboroxole], the melting point lay in the range of 122 to 124 °C. Moreover, in data set [1], the viability at 72 h, 12.5 µM is 51.8% and the viability at 72 h, 50 µM came out at 37.9%. In data set [2], the viability at 72 h, 12.5 µM was found to be 90.2% and the viability at 72 h, 50 µM stood at 90%.

In turn, `CN(C)c1ccc(CNc2ccc3c(c2)B(O)OC3)cc1` [Compound 11] came in with a melting point of 122 to 124 °C. Also, in data set [1], the viability at 72 h, 12.5 µM was found to be 72.1% and the viability at 72 h, 50 µM was determined as 78.4%. In addition, in data set [2], the viability at 72 h, 12.5 µM worked out at 97.6% and the viability at 72 h, 50 µM was found to be 71.1%.

`CCCCN(CCCC)c1ccc(CNc2ccc3c(c2)B(O)OC3)cc1` [Compound 12] showed a melting point of 94 to 96 °C. For the same compound, in data set [1], the viability at 72 h, 12.5 µM turned out to be 89.1% and the viability at 72 h, 50 µM came to 58.2%. For the same compound, in data set [2], the viability at 72 h, 12.5 µM is 106% and the viability at 72 h, 50 µM turned out to be 103%.

On to `OB1OCc2ccc(NCc3ccc(N4CCCCC4)cc3)cc21` [Compound 13], for which the melting point lay in the range of 65 to 67 °C. In data set [1], the viability at 72 h, 12.5 µM amounted to 92% and the viability at 72 h, 50 µM came out at 49.5%. Besides, in data set [2], the viability at 72 h, 12.5 µM amounted to 93.9% and the viability at 72 h, 50 µM is 90.7%.

With `OB1OCc2ccc(NCc3ccc4c(c3)OCO4)cc21` [Compound 14], the melting point fell in the range of 136 to 138 °C. Further, in data set [1], the viability at 72 h, 12.5 µM was determined as 88.9% and the viability at 72 h, 50 µM came to 69%. For the same compound, in data set [2], the viability at 72 h, 12.5 µM is 88.5% and the viability at 72 h, 50 µM came out at 102%.

With `O=C(Nc1ccc([N+](=O)[O-])c(C(F)(F)F)c1)c1ccc(CNc2ccc3c(c2)B(O)OC3)cc1` [Compound 15], the melting point was 117 to 119 °C.

In the case of `OB1OCc2ccc(NCc3cc4ccccc4nc3Cl)cc21` [Compound 16], the melting point is 209 to 211 °C. In data set [1], the viability at 72 h, 12.5 µM amounted to 28.2% and the viability at 72 h, 50 µM came out at 28.6%. Also, in data set [3], the “activity against MIAPaCa-2 cell lines” value is recorded as “showed activity” and the pIC50 is 5.08. In data set [2], the viability at 72 h, 12.5 µM is 44.3% and the viability at 72 h, 50 µM came out at 44.8%. This compound also showed a pIC50 in data set [4] of 4.94.

`O=NN(Cc1ccccc1)c1ccc2c(c1)B(O)OC2` [Compound 17] yielded a melting point of 108 to 110 °C. In addition, in data set [1], the viability at 72 h, 12.5 µM was 83.5% and the viability at 72 h, 50 µM came to 51.5%. Besides, in data set [2], the viability at 72 h, 12.5 µM is 121% and the viability at 72 h, 50 µM was 115%.

In the case of `COc1ccc(CN(N=O)c2ccc3c(c2)B(O)OC3)cc1` [Compound 18, 6-N-nitroso-N-(p-methoxybenzyl)amino-benzoboroxole], the melting point lay in the range of 109 to 111 °C. For the same compound, in data set [1], the viability at 72 h, 12.5 µM came out at 83% and the viability at 72 h, 50 µM was found to be 61%. In data set [2], the viability at 72 h, 12.5 µM worked out at 119% and the viability at 72 h, 50 µM was 123%.

`O=NN(Cc1ccc(F)cc1)c1ccc2c(c1)B(O)OC2` [Compound 19] came in with a melting point of 121 to 123 °C. Moreover, in data set [1], the viability at 72 h, 12.5 µM came to 77.7% and the viability at 72 h, 50 µM turned out to be 62.8%. Besides, in data set [2], the viability at 72 h, 12.5 µM is 128% and the viability at 72 h, 50 µM is 108%.

`O=NN(Cc1ccc(F)cc1F)c1ccc2c(c1)B(O)OC2` [Compound 20]: the melting point lay within 125 to 127 °C. Also, in data set [1], the viability at 72 h, 12.5 µM was determined as 70.3% and the viability at 72 h, 50 µM came to 70.5%. Moreover, in data set [2], the viability at 72 h, 12.5 µM worked out at 122% and the viability at 72 h, 50 µM is 126%.

`O=NN(Cc1ccc(Cl)cc1Cl)c1ccc2c(c1)B(O)OC2` [Compound 21]: the melting point was in the range of 121 to 123 °C. For the same compound, in data set [1], the viability at 72 h, 12.5 µM came out at 95.7% and the viability at 72 h, 50 µM is 69.5%. In data set [2], the viability at 72 h, 12.5 µM was found to be 134% and the viability at 72 h, 50 µM came out at 106%.

On to `O=NN(Cc1ccc(Cl)c(Cl)c1)c1ccc2c(c1)B(O)OC2` [Compound 22], for which the melting point fell in the range of 144 to 147 °C. In data set [1], the viability at 72 h, 12.5 µM is 84.8% and the viability at 72 h, 50 µM turned out to be 59.9%. Moreover, in data set [2], the viability at 72 h, 12.5 µM was determined as 122% and the viability at 72 h, 50 µM was 146%.

Compound `O=C(Nc1ccccc1)N(Cc1ccccc1)c1ccc2c(c1)B(O)OC2` [Compound 23] returned a melting point of 116 to 118 °C. In data set [1], the viability at 72 h, 12.5 µM amounted to 49.6% and the viability at 72 h, 50 µM stood at 30%. Also, in data set [2], the viability at 72 h, 12.5 µM amounted to 116% and the viability at 72 h, 50 µM was found to be 47%.

In the case of `COc1ccc(CN(C(=O)Nc2ccccc2)c2ccc3c(c2)B(O)OC3)cc1` [Compound 24], the melting point was in the range of 104 to 106 °C. In addition, in data set [1], the viability at 72 h, 12.5 µM came out at 22.4% and the viability at 72 h, 50 µM is 17.5%. In data set [3], the “activity against MIAPaCa-2 cell lines” value is on record as “showed activity” and the negative-log IC50 (pIC50) was 5.57. In data set [2], the viability at 72 h, 12.5 µM is 63% and the viability at 72 h, 50 µM stood at 53.9%. In data set [4], the pIC50 is 4.92.

In turn, `O=C(NC1CCCCC1)N(Cc1ccccc1)c1ccc2c(c1)B(O)OC2` [Compound 25] gave a melting point of 125 to 127 °C. For the same compound, in data set [1], the viability at 72 h, 12.5 µM is 64.8% and the viability at 72 h, 50 µM was 39.4%. Moreover, in data set [2], the viability at 72 h, 12.5 µM was found to be 80.9% and the viability at 72 h, 50 µM was 128%.

The compound `COc1ccc(CN(C(=O)NC2CCCCC2)c2ccc3c(c2)B(O)OC3)cc1` [Compound 26] displayed a melting point of 156 to 158 °C. In addition, in data set [1], the viability at 72 h, 12.5 µM came out at 45.5% and the viability at 72 h, 50 µM was 25.1%. Also, in data set [2], the viability at 72 h, 12.5 µM came to 96.3% and the viability at 72 h, 50 µM came out at 60.8%.

On to `O=C(NCCCl)N(Cc1ccccc1)c1ccc2c(c1)B(O)OC2` [Compound 27], for which the melting point lay in the range of 138 to 140 °C. In addition, in data set [1], the viability at 72 h, 12.5 µM came out at 104% and the viability at 72 h, 50 µM was determined as 61.8%. In data set [2], the viability at 72 h, 12.5 µM came out at 135% and the viability at 72 h, 50 µM came out at 101%.

The compound `COc1ccc(CN(C(=O)NCCCl)c2ccc3c(c2)B(O)OC3)cc1` [Compound 28] had a melting point of 134 to 136 °C. Also, in data set [1], the viability at 72 h, 12.5 µM was 74.9% and the viability at 72 h, 50 µM was 60.4%. In data set [2], the viability at 72 h, 12.5 µM was 95.8% and the viability at 72 h, 50 µM was determined as 63.2%.

These data come from patent US10633399B2, “Functionalized aminobenzoboroxoles” (Channel Therapeutics, Inc., priority 2015, dated 2020).
